Source: US9273341B2, “Methods for treatment of bacterial infections” (THE JOHNS HOPKINS UNVIERSITY, priority 2010, dated 2016)
In brackets after ≈: the same amount, converted by molar mass. Entries after “also recorded” stand apart in the source; their conditions may differ.

Columns and labels:
[1] = system: M. tuberculosis mutant strain lacking LdtMt2 (ldtMt2::Tn); format: cell-based
[2] = target: T1, LdtMt2 (Mycobacterium tuberculosis, UniProt O53223); format: biochemical, M. tuberculosis
T1 construct: initiator methionine from the pET2818 ATG codon (N); made in house; host or cells: E. coli BL21(DE3) harboring pREP4GroESL and pET2818 with the ldtMt2 fragment
T1 sequence (O53223 55-408): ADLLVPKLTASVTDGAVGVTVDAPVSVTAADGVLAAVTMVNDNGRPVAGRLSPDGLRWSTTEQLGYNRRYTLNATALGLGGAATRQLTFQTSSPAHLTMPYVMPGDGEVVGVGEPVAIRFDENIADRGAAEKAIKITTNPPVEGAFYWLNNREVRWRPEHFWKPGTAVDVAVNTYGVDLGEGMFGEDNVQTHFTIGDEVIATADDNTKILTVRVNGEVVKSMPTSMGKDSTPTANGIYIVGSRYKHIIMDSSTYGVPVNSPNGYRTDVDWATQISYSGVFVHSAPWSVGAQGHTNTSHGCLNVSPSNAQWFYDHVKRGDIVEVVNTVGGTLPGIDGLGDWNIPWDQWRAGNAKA

[3] = target: T1, LdtMt2; format: binding, M. tuberculosis
[4] = system: M. tuberculosis lacking LdtMt2 (ldtMt2::Tn); parameters: species or system Balb/C mice; settings: mouse, in vivo

Structure (SMILES)	concentration up to which LdtMt2 was not inhibited [2]	formation of covalent adducts with LdtMt2 [3]	other results
N[C@@H]1CON=C1O [D-cycloserine]			MIC [1]: 5 µg/mL (≈ 49 µM)
CC1(C)S[C@@H]2[C@H](NC(=O)[C@H](N)c3ccccc3)C(=O)N2[C@H]1C(=O)O [ampicillin]	> 5,700 μM	Adducts were not detected; also recorded: No adduct was detected	
CO/N=C(\C(=O)N[C@@H]1C(=O)N2C(C(=O)O)=C(CSc3nc(=O)c(=O)[nH]n3C)CS[C@H]12)c1csc(N)n1 [ceftriaxone]	> 360 µM	Adducts were not detected; also recorded: No adduct was detected	
C[C@@H](O)[C@H]1C(=O)N2C(C(=O)O)=C(S[C@@H]3CN[C@H](C(=O)Nc4cccc(C(=O)O)c4)C3)[C@H](C)[C@H]12 [ertapenem]		formation of covalent adducts	
NNC(=O)c1ccncc1 [isoniazid]			bacterial burden (lung CFU) under treatment [4]: similarly effective
C[C@@H](O)[C@H]1C(=O)N2C(C(=O)O)=C(S[C@@H]3CN[C@H](C(=O)N(C)C)C3)[C@H](C)[C@H]12 [meropenem]		formation of covalent adducts	
